The values that follow come from patent US6710041B2, “Pyrrolo[2,1-B][3,1] benzothiazepines and their use for the preparation of medicaments with antipsychotic activity” (Sigma-Tau Industrie Farmaceutiche Riunite S.p.A., priority 2003, dated 2004).

In data set [1] the test system is Wistar male rats. As to the kind of experiment: Evaluation of catalepsy (bar test). The data set is classed as in vivo, rat. How it is done:
The test was performed on Wistar male rats (N=7 animals); catalepsy was evaluated by means of a metal bar measuring 0.6 cm in diameter positioned at a distance of 10 cm from the work surface. The substance studied, in the form of maleic acid salt (ST1699), was administered subcutaneously 30 minutes prior to the evaluation. The subsequent evaluation times were 60, 90, 120, 180, 240, and 300 minutes after administration.
By means of the test used for evaluating catalepsy in the rat, ST1699 affinity for the D2 receptor subtype of the nigrostriatal dopaminergic system was verified.
Table 4 gives the percentages of animals presenting catalepsy at the various different times after administration of subacute doses of the study compound.

The target in data set [2] is T1, H1 histamine receptor (Rattus norvegicus, UniProt P31390).
T1 construct: from tissue; host or cells: rat cortex membranes
Put plainly: Interaction with H1 receptors, [3H]-pyrilamine binding, rat cortex membranes. As to conditions: Table 1; mean and standard deviation; read-out: H1 Ki ± ds.
Method: Interaction with H1 Receptors
Aspecific binding was determined in the presence of 100 μM of pyrilamine.

Data set [3] concerns 5-HT2 versus D2 receptor. As to the kind of experiment: Classification of typical and atypical antipsychotics by 5-HT2 versus D2 pKi ratio and Log Y score. As to conditions: for LogY: Log Y score smaller than 6.48 = atypical profile.

T1 sequence (P31390 whole entry): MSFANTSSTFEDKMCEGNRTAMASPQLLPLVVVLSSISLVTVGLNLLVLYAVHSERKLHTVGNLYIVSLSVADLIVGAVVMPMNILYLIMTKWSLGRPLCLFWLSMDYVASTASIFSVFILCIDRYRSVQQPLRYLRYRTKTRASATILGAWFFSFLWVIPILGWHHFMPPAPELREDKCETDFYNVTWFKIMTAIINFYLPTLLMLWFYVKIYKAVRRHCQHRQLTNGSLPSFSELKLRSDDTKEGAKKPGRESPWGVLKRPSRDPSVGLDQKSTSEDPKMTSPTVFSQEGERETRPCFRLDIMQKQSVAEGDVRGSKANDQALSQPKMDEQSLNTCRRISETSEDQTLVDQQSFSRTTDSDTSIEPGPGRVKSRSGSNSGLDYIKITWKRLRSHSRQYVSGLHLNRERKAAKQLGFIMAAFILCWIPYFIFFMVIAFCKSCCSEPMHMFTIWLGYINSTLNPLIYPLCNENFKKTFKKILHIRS

For `O=C(CCCN1CCC(O)(c2ccc(Cl)cc2)CC1)c1ccc(F)cc1` [Haloperidol, haloperidol, reference compound], the “percentage of animals presenting catalepsy” value (from here on “percentage”) is reported as 0% in data set [1] (0.2 mg/kg, 30 min after administration); 70% in data set [1] (0.2 mg/kg, 60 min after administration); 100% in data set [1] (0.2 mg/kg, 90 min after administration); 100% in data set [1] (0.2 mg/kg, 120 min after administration); 100% in data set [1] (0.2 mg/kg, 180 min after administration).

Broadly, the Ki is the equilibrium dissociation constant of an inhibitor or competing ligand from its target. In the case of `CN1CCN(C2=Cn3cccc3Sc3ccc(Cl)cc32)CC1` [ST1508, 7-chloro-9-(4-methyl-1-piperazinyl)pyrrolo[2,1-b][1,3]benzothiazepine], the Ki in data set [2] stood at 2.7 ± 0.02 nM. In addition, in data set [3], the LogY came to 8.20.

With `CN1CCN(C2=Cn3cccc3Sc3ccc(Cl)cc32)CC1` [ST1699, 7-chloro-9-(4-methyl-1-piperazinyl)pyrrolo[2,1-b][1,3]benzothiazepine], the “percentage” value in data set [1] (0.3 mg/kg subcutaneously, 30 min after administration) worked out at 0%; in data set [1] (0.3 mg/kg subcutaneously, 60 min after administration), 0%; in data set [1] (0.3 mg/kg subcutaneously, 90 min after administration), 17%; in data set [1] (0.3 mg/kg subcutaneously, 120 min after administration), 17%; in data set [1] (0.3 mg/kg subcutaneously, 180 min after administration), 33%; in data set [1] (0.6 mg/kg subcutaneously, 30 min after administration), 33%. The “percentage” value is recorded as 66% in data set [1] (0.6 mg/kg subcutaneously, 60 min after administration); 83% in data set [1] (0.6 mg/kg subcutaneously, 90 min after administration); 100% in data set [1] (0.6 mg/kg subcutaneously, 120 min after administration); 100% in data set [1] (0.6 mg/kg subcutaneously, 180 min after administration). The occurrence of catalepsy result in data set [1] (in words, highest dose among those used (0.6 mg/kg), effects comparable to 0.2 mg/kg of haloperidol) is “induced the occurrence of catalepsy”.

Regarding `Cc1ccc2n1C=C(N1CCN(C)CC1)c1ccccc1S2` [ST2092, 1-Methyl-9-(4-methylpiperazin-1-yl)pyrrolo[2,1-b][1,3]benzothiazepine], the LogY in data set [3] was determined as 3.19. The “binding affinity at 5 HT2 receptor compared with D2 dopamine receptor” value in data set [3] (in words) is listed as “greater than D2 dopamine receptor”.
